Assay results taken from US20260022142A1, “MACROCYCLIC IMMUNOMODULATORS” (Bristol-Myers Squibb Company, priority 2022, published 2026).
Bridge positions count the residues as written; N and C are the ends. Square brackets hold non-standard residues; d marks the D form. Peptide text beside a SMILES is read from it. * marks the point of attachment. Bip = N[C@@H](Cc1ccc(-c2ccccc2)cc1)C(=O)O; Phe(3-Me) = Cc1cccc(C[C@H](N)C(=O)O)c1; hhGln = NC(=O)CCCC[C@H](N)C(=O)O; Cha = N[C@@H](CC1CCCCC1)C(=O)O; Cit = NC(=O)NCCC[C@H](N)C(=O)O; Carboxymethyl = O=C(O)C*; Orn = NCCC[C@H](N)C(=O)O; Aun = NCCCCCCCCCCC(=O)O; Dab = NCC[C@H](N)C(=O)O; Dap = NC[C@H](N)C(=O)O; AEEA = NCCOCCOCC(=O)O

Biological target: T1, PD-1/PD-L1 interaction (PE-labeled human PD-L1-Ig binding to Jurkat cell line over-expressing human PD-1) (Homo sapiens, UniProt Q15116)
T1 construct: expressed in transfected cells; host or cells: Jurkat
T1 sequence (Q15116 25-288): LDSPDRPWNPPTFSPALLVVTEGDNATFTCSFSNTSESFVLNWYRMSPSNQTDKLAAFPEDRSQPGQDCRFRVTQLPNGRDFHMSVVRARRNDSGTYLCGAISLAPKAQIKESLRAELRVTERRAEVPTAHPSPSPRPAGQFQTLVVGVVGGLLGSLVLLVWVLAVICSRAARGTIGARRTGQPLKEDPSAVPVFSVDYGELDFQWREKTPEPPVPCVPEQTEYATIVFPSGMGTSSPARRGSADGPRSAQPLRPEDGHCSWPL
Experiment: Jurkat-PD-1 Cell Binding High-Content Screening Assay (CBA)
Format: cell-based
Details: Jurkat cell line over-expressing human PD-1; PE-labeled PD-L1-Ig 20 nM final; read-out: Jurkat hPD1-PDL1 IC50
Summary of the method: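 Binding of fluorescent PD-L1-Ig (phycoerythrin on Ig tag, 20 nM final, 1 h) measured by high-content imaging of fixed, Hoechst-counterstained Jurkat-hPD-1 cells. Compound added 2 h at 37° C beforehand, in DMEM with 10% fetal calf serum.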

`Cc1cccc(C[C@@H]2NC(=O)[C@H](CC(=O)O)NC(=O)[C@H](Cc3ccc(OCC(=O)O)cc3)NC(=O)[C@H](CN)NC(=O)CSC[C@@H](C(=O)NCCOCCOCC(=O)N[C@@H](CCN)C(=O)NCCCCCCCCCCC(=O)O)NC(=O)[C@H](CN)NC(=O)[C@H](C(C)C)NC(=O)[C@H](CC3CCCCC3)NC(=O)[C@H](CCN)NC(=O)[C@@H](CC(C)C)NC(=O)[C@H](CCCN)NC(=O)[C@H](CCCNC(N)=O)NC(=O)[C@H](Cc3ccc(-c4ccccc4)cc3)NC(=O)[C@H](C(C)C)NC2=O)c1` [Compound 2627] ({CH2CO}-[Dap]Y(Carboxymethyl)D[Phe(3-Me)]V[Bip][Cit][Orn][dL][Dab][Cha]V[Dap]C[AEEA][Dab][Aun]-OH; thioether N-14) gave an IC50 of 14.1 nM.

With `CC[C@H](C)[C@@H]1NC(=O)[C@H](Cc2ccc(-c3ccccc3)cc2)NC(=O)[C@H](C(C)C)NC(=O)[C@H](Cc2cccc(C)c2)NC(=O)[C@H](CC(=O)O)NC(=O)[C@H](Cc2ccc(OCC(=O)O)cc2)NC(=O)[C@H](CN)NC(=O)CSC[C@@H](C(=O)NCCOCCOCC(=O)N[C@@H](CCN)C(=O)NCCCCCCCCCCC(=O)O)NC(=O)[C@H](CN)NC(=O)[C@H](C(C)C)NC(=O)[C@H](CC2CCCCC2)NC(=O)[C@H](CCN)NC(=O)[C@@H](CC(C)C)NC(=O)[C@H](CCCN)NC1=O` [Compound 2628] ({CH2CO}-[Dap]Y(Carboxymethyl)D[Phe(3-Me)]V[Bip]I[Orn][dL][Dab][Cha]V[Dap]C[AEEA][Dab][Aun]-OH; thioether N-14) the IC50 was 15.1 nM.

For `Cc1cccc(C[C@@H]2NC(=O)[C@H](CC(=O)O)NC(=O)[C@H](Cc3ccc(OCC(=O)O)cc3)NC(=O)[C@H](CN)NC(=O)CSC[C@@H](C(=O)NCCOCCOCC(=O)N[C@@H](CCN)C(=O)NCCCCCCCCCCC(=O)O)NC(=O)[C@H](CCCN)NC(=O)[C@H](C(C)C)NC(=O)[C@H](CC3CCCCC3)NC(=O)[C@H](CCN)NC(=O)[C@@H](CC(C)C)NC(=O)[C@H](CCCN)NC(=O)[C@H](CCCNC(N)=O)NC(=O)[C@H](Cc3ccc(-c4ccccc4)cc3)NC(=O)[C@H](C(C)C)NC2=O)c1` [Compound 2629] ({CH2CO}-[Dap]Y(Carboxymethyl)D[Phe(3-Me)]V[Bip][Cit][Orn][dL][Dab][Cha]V[Orn]C[AEEA][Dab][Aun]-OH; thioether N-14), the IC50 was 8.6 nM.

`CC[C@H](C)[C@@H]1NC(=O)[C@H](Cc2ccc(-c3ccccc3)cc2)NC(=O)[C@H](C(C)C)NC(=O)[C@H](Cc2cccc(C)c2)NC(=O)[C@H](CC(=O)O)NC(=O)[C@H](Cc2ccc(OCC(=O)O)cc2)NC(=O)[C@H](CN)NC(=O)CSC[C@@H](C(=O)NCCOCCOCC(=O)N[C@@H](CCN)C(=O)NCCCCCCCCCCC(=O)O)NC(=O)[C@H](CCCN)NC(=O)[C@H](C(C)C)NC(=O)[C@H](CC2CCCCC2)NC(=O)[C@H](CCN)NC(=O)[C@@H](CC(C)C)NC(=O)[C@H](CCCN)NC1=O` [Compound 2630] ({CH2CO}-[Dap]Y(Carboxymethyl)D[Phe(3-Me)]V[Bip]I[Orn][dL][Dab][Cha]V[Orn]C[AEEA][Dab][Aun]-OH; thioether N-14) was tested, and the IC50 was 9.9 nM.

In the case of `CC(C)C[C@H]1NC(=O)[C@H](CCCN)NC(=O)[C@H](CCCCC(N)=O)NC(=O)[C@H](Cc2ccc(-c3ccccc3)cc2)NC(=O)[C@H](C(C)C)NC(=O)[C@H](Cc2c[nH]c3ccccc23)NC(=O)[C@H](CC(=O)O)NC(=O)[C@H](Cc2ccc(OCC(=O)O)cc2)NC(=O)[C@H](CN)NC(=O)CSC[C@@H](C(=O)N[C@@H](CCN)C(=O)NCCOCCOCC(=O)NCCCCCCCCCCC(=O)O)NC(=O)[C@H](CCCCN)NC(=O)[C@H](C(C)C)NC(=O)[C@H](CC2CCCCC2)NC(=O)[C@H](CCN)NC1=O` [Compound 2631] ({CH2CO}-[Dap]Y(Carboxymethyl)DWV[Bip][hhGln][Orn][dL][Dab][Cha]VKC[Dab][AEEA][Aun]-OH; thioether N-14), the IC50 is reported as 14.1 nM.

Molecule `CC[C@H](C)[C@@H]1NC(=O)[C@H](Cc2ccc(-c3ccccc3)cc2)NC(=O)[C@H](C(C)C)NC(=O)[C@H](Cc2c[nH]c3ccccc23)NC(=O)[C@H](CC(=O)O)NC(=O)[C@H](Cc2ccc(OCC(=O)O)cc2)NC(=O)[C@H](CN)NC(=O)CSC[C@@H](C(=O)N[C@@H](CCN)C(=O)NCCOCCOCC(=O)NCCCCCCCCCCC(=O)O)NC(=O)[C@H](CCCCN)NC(=O)[C@H](C(C)C)NC(=O)[C@H](CC2CCCCC2)NC(=O)[C@H](CCN)NC(=O)[C@@H](CC(C)C)NC(=O)[C@H](CCCN)NC1=O` [Compound 2632] ({CH2CO}-[Dap]Y(Carboxymethyl)DWV[Bip]I[Orn][dL][Dab][Cha]VKC[Dab][AEEA][Aun]-OH; thioether N-14) has an IC50 of 12.4 nM.

With `Cc1cccc(C[C@@H]2NC(=O)[C@H](CC(=O)O)NC(=O)[C@H](Cc3ccc(OCC(=O)O)cc3)NC(=O)[C@H](CN)NC(=O)CSC[C@@H](C(=O)N[C@@H](CCN)C(=O)NCCOCCOCC(=O)NCCCCCCCCCCC(=O)O)NC(=O)[C@H](CN)NC(=O)[C@H](C(C)C)NC(=O)[C@H](CC3CCCCC3)NC(=O)[C@H](CCN)NC(=O)[C@@H](CC(C)C)NC(=O)[C@H](CCCN)NC(=O)[C@H](CCCNC(N)=O)NC(=O)[C@H](Cc3ccc(-c4ccccc4)cc3)NC(=O)[C@H](C(C)C)NC2=O)c1` [Compound 2633] ({CH2CO}-[Dap]Y(Carboxymethyl)D[Phe(3-Me)]V[Bip][Cit][Orn][dL][Dab][Cha]V[Dap]C[Dab][AEEA][Aun]-OH; thioether N-14) the IC50 was 16.4 nM.

`CC[C@H](C)[C@@H]1NC(=O)[C@H](Cc2ccc(-c3ccccc3)cc2)NC(=O)[C@H](C(C)C)NC(=O)[C@H](Cc2cccc(C)c2)NC(=O)[C@H](CC(=O)O)NC(=O)[C@H](Cc2ccc(OCC(=O)O)cc2)NC(=O)[C@H](CN)NC(=O)CSC[C@@H](C(=O)N[C@@H](CCN)C(=O)NCCOCCOCC(=O)NCCCCCCCCCCC(=O)O)NC(=O)[C@H](CN)NC(=O)[C@H](C(C)C)NC(=O)[C@H](CC2CCCCC2)NC(=O)[C@H](CCN)NC(=O)[C@@H](CC(C)C)NC(=O)[C@H](CCCN)NC1=O` [Compound 2634] ({CH2CO}-[Dap]Y(Carboxymethyl)D[Phe(3-Me)]V[Bip]I[Orn][dL][Dab][Cha]V[Dap]C[Dab][AEEA][Aun]-OH; thioether N-14) showed an IC50 of 14.1 nM.

`Cc1cccc(C[C@@H]2NC(=O)[C@H](CC(=O)O)NC(=O)[C@H](Cc3ccc(OCC(=O)O)cc3)NC(=O)[C@H](CN)NC(=O)CSC[C@@H](C(=O)N[C@@H](CCN)C(=O)NCCOCCOCC(=O)NCCCCCCCCCCC(=O)O)NC(=O)[C@H](CCCNC(=N)N)NC(=O)[C@H](C(C)C)NC(=O)[C@H](CC3CCCCC3)NC(=O)[C@H](CCN)NC(=O)[C@@H](CC(C)C)NC(=O)[C@H](CCCN)NC(=O)[C@H](CCCNC(N)=O)NC(=O)[C@H](Cc3ccc(-c4ccccc4)cc3)NC(=O)[C@H](C(C)C)NC2=O)c1` [Compound 2635] ({CH2CO}-[Dap]Y(Carboxymethyl)D[Phe(3-Me)]V[Bip][Cit][Orn][dL][Dab][Cha]VRC[Dab][AEEA][Aun]-OH; thioether N-14) gave an IC50 of 10.3 nM.

`CC[C@H](C)[C@@H]1NC(=O)[C@H](Cc2ccc(-c3ccccc3)cc2)NC(=O)[C@H](C(C)C)NC(=O)[C@H](Cc2cccc(C)c2)NC(=O)[C@H](CC(=O)O)NC(=O)[C@H](Cc2ccc(OCC(=O)O)cc2)NC(=O)[C@H](CN)NC(=O)CSC[C@@H](C(=O)N[C@@H](CCN)C(=O)NCCOCCOCC(=O)NCCCCCCCCCCC(=O)O)NC(=O)[C@H](CCCNC(=N)N)NC(=O)[C@H](C(C)C)NC(=O)[C@H](CC2CCCCC2)NC(=O)[C@H](CCN)NC(=O)[C@@H](CC(C)C)NC(=O)[C@H](CCCN)NC1=O` [Compound 2636] ({CH2CO}-[Dap]Y(Carboxymethyl)D[Phe(3-Me)]V[Bip]I[Orn][dL][Dab][Cha]VRC[Dab][AEEA][Aun]-OH; thioether N-14) showed an IC50 of 22.5 nM.

In the case of `Cc1cccc(C[C@@H]2NC(=O)[C@H](CC(=O)O)NC(=O)[C@H](Cc3ccc(OCC(=O)O)cc3)NC(=O)[C@H](CN)NC(=O)CSC[C@@H](C(=O)N[C@@H](CCCCN)C(=O)NCCCCCCCCCCC(=O)O)NC(=O)[C@H](CN)NC(=O)[C@H](C(C)C)NC(=O)[C@H](CC3CCCCC3)NC(=O)[C@H](CCN)NC(=O)[C@@H](CC(C)C)NC(=O)[C@H](CCCN)NC(=O)[C@H](CCCNC(N)=O)NC(=O)[C@H](Cc3ccc(-c4ccccc4)cc3)NC(=O)[C@H](C(C)C)NC2=O)c1` [Compound 2637] ({CH2CO}-[Dap]Y(Carboxymethyl)D[Phe(3-Me)]V[Bip][Cit][Orn][dL][Dab][Cha]V[Dap]CK[Aun]-OH; thioether N-14), the IC50 is reported as 15.5 nM.

`CC[C@H](C)[C@@H]1NC(=O)[C@H](Cc2ccc(-c3ccccc3)cc2)NC(=O)[C@H](C(C)C)NC(=O)[C@H](Cc2cccc(C)c2)NC(=O)[C@H](CC(=O)O)NC(=O)[C@H](Cc2ccc(OCC(=O)O)cc2)NC(=O)[C@H](CN)NC(=O)CSC[C@@H](C(=O)N[C@@H](CCCCN)C(=O)NCCCCCCCCCCC(=O)O)NC(=O)[C@H](CN)NC(=O)[C@H](C(C)C)NC(=O)[C@H](CC2CCCCC2)NC(=O)[C@H](CCN)NC(=O)[C@@H](CC(C)C)NC(=O)[C@H](CCCN)NC1=O` [Compound 2638] ({CH2CO}-[Dap]Y(Carboxymethyl)D[Phe(3-Me)]V[Bip]I[Orn][dL][Dab][Cha]V[Dap]CK[Aun]-OH; thioether N-14) was tested, and the IC50 was 19 nM.

Molecule `CC[C@H](C)[C@@H]1NC(=O)[C@H](Cc2ccc(-c3ccccc3)cc2)NC(=O)[C@H](C(C)C)NC(=O)[C@H](Cc2cccc(C)c2)NC(=O)[C@H](CC(=O)O)NC(=O)[C@H](Cc2ccc(OCC(=O)O)cc2)NC(=O)[C@H](CN)NC(=O)CSC[C@@H](C(=O)N[C@@H](CCCCN)C(=O)NCCCCCCCCCCC(=O)O)NC(=O)[C@H](CCCN)NC(=O)[C@H](C(C)C)NC(=O)[C@H](CC2CCCCC2)NC(=O)[C@H](CCN)NC(=O)[C@@H](CC(C)C)NC(=O)[C@H](CCCN)NC1=O` [Compound 2640] ({CH2CO}-[Dap]Y(Carboxymethyl)D[Phe(3-Me)]V[Bip]I[Orn][dL][Dab][Cha]V[Orn]CK[Aun]-OH; thioether N-14) has an IC50 of 8.1 nM.
